Experiment: Drug release kinetics (first-order fit)
Type: physicochemical
Excerpt: The drug release data was fitted to kinetic models of first-order, and the coefficient of determination (r^2) was indicative of best-fit model to describe drug release kinetics.

With CC(C)c1c(C(=O)Nc2ccccc2)c(-c2ccccc2)c(-c2ccc(F)cc2)n1CC[C@@H](O)C[C@@H](O)CC(=O)O [ATR, Atorvastatin calcium trihydrate] the “Drug release rate constant (first-order rate constant, K1)” value (shortened to “Drug release rate constant”) (Water, release data until 30 min) was 1.092, the “Drug release rate constant” value (pH 1.2, release data until 30 min) was 0.608 and the “Drug release rate constant” value (pH 4.0, release data until 30 min) was 0.752. For the same compound, the “Drug release rate constant” value (pH 6.8, release data until 30 min) was 1.040.

— PMC11675580, “Supersaturated Gel Formulation (SGF) of Atorvastatin at a Maximum Dose of 80 mg with Enhanced Solubility, Dissolution, and Physical Stability” (Gels, 2024)
